Measurements: paper PMC6405842, “Identification of a novel scaffold for a small molecule GPR139 receptor agonist” (Scientific Reports, 2019)

Columns and labels:
[1] = target: T1, GPR139 (Homo sapiens, UniProt Q6DWJ6); experiment: Phospho-ERK1/2 HTRF assay in CHO-GPR139 cells; format: cell-based; details: ERK phosphorylation
T1 construct: host or cells: CHO-k1
T1 sequence (Q6DWJ6 1-353): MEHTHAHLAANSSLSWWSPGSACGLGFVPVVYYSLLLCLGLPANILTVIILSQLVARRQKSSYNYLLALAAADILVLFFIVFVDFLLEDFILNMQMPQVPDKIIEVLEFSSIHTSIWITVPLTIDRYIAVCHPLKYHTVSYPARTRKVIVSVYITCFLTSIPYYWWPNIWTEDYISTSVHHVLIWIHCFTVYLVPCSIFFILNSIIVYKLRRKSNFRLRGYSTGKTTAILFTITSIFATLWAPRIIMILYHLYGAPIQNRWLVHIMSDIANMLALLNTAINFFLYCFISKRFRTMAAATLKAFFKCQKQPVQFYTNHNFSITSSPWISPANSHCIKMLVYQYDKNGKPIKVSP
Description: All compounds were tested on a CHO-k1 cell line stably expressing GPR139 (CHO-GPR139)[11] kindly provided by H. Lundbeck A/S, Denmark. GPR139-specific responses were assessed using a CHO-k1 cell line stably expressing the muscarinic acetylcholine receptor M1 (CHO-M1) (The Missouri S&T cDNA Resource Center, # CEM100TN00).
Phospho-ERK measurements were made using the Advanced Phospho-ERK1/2 (Thr202/Tyr204) HTRF kit by Cisbio (Codolet, France). Approximately 24 hours prior to the experiment, CHO-GPR139 cells were plated at 50,000 cells/well onto a 96-well plate and cultured as detailed above. Approximately 6 hours later, the media was aspirated, replaced with 50 μL serum-free media, and the cells were allowed to serum starve overnight. The day of the experiment, serial dilutions of the test compounds and controls were made in serum-free media at 2x final concentration. 50 μL of test compounds were added directly to the appropriate wells for 5 minute stimulation at 37 °C. At this point, the media and compounds were rapidly aspirated, lysis/blocking buffer was added, and cells were lysed on a shaker for 30 minutes at room temperature.
(§1) The Ca^2+ and ERK responses were normalized as indicated and the concentration response curves were fitted by Prism 6 software (GraphPad) using nonlinear regression in a sigmoidal model with variable slope, as has been previously described.

[2] = target: T1, GPR139; experiment: Fluo-4 calcium mobilization assay, agonist mode, concentration-response curves in CHO-GPR139 cells; format: cell-based
Description: All compounds were tested on a CHO-k1 cell line stably expressing GPR139 (CHO-GPR139)[11] kindly provided by H. Lundbeck A/S, Denmark. GPR139-specific responses were assessed using a CHO-k1 cell line stably expressing the muscarinic acetylcholine receptor M1 (CHO-M1) (The Missouri S&T cDNA Resource Center, # CEM100TN00). The CHO-GPR139 cells were grown in Dulbecco’s modified Eagle’s medium (DMEM) F12-Kaighn’s (ThermoFisher Scientific # 21127) supplemented with 10% dialyzed fetal bovine serum (United States origin; ThermoFisher Scientific # 26400), 1% GlutaMAX-I (100X) (ThermoFisher Scientific # 35050061), and 100 units/mL penicillin and 100 µg/mL streptomycin (ThermoFisher Scientific # 15140122) and 1 mg/mL geneticin (ThermoFisher Scientific # 11811031). The CHO-M1 cells were grown in Ham’s F12 (ThermoFisher Scientific # 21765) supplemented with 10% fetal bovine serum (South American origin; ThermoFisher Scientific # 10270) + 100 units/mL penicillin and streptomycin and 0.25 mg/mL geneticin.
The Fluo-4 Ca^2+-assay was performed as described previously, with minor modifications. After 1 hour incubation with the Fluo-4 dye, the CHO-GPR139 cells were washed with 100 μL HEPES buffer (Hank’s Balanced Salt Solution (HBBS, ThermoFisher Scientific # 14175053) supplemented with 20 mM HEPES, 1 mM MgCl2, 1 mM CaCl2, pH = 7.4) and the compound library was then added in concentrations between 25–63 μM dissolved in HEPES buffer (supplemented with 2.5 mM probenecid and 1% DMSO) and pre-incubated for 10 min at 37 °C. 33 μL of 3.2 μM 1a were added automatically after baseline measurements. […] This set-up allowed us to identify both antagonists and agonists (Fig. 2).
Each compound, for which a concentration response curve was made, was tested at least three times in duplicate measurements. After the incubation with the Fluo-4 dye and a wash, 100 μL HEPES buffer (supplemented with 2.5 mM probenecid) was added to each well and incubated for 10 minutes at 37 °C before recording. 33 μL of compounds (4× concentrated) were added automatically after baseline measurements.
as §1

[3] = CHO-GPR139 cells, read-out: pEC50 ± SEM (converted)
[4] = expressed relative to FBS positive control
[5] = calcium mobilization assay, GPR139, values printed with a minus sign, read-out: pEC50 ± SEM (converted)
[6] = calcium mobilization assay, efficacy normalized to compound 1a
[7] = CHO-GPR139 cells, at least three independent concentration-response curves in duplicate, read-out: EC50
[8] = CHO-GPR139 cells, normalized to buffer (0%) and 8 μM 1a (100%)
[9] = Table S1, 11 primary screen hits
[10] = Table S1, 11 primary screen hits, read-out: EC50
[11] = Table S1, normalized to compound 1a
[12] = CHO-GPR139 cells, 5 minute stimulation, read-out: EC50

Row | SMILES | pEC50 ± S.E.M. ([2]; CHO-GPR139 cells) | EC50 [2, 7] [nM] | Emax ± S.E.M. [2, 8] [%] | other results
1 | COc1cc(OC)cc(C(=O)NNC(=O)Nc2cccc3ccccc23)c1 [1a, reference compound] |  |  |  | EC50 [1, 3]: 28.2 nM; Emax [1, 4]: 81.5 ± 4.12%; EC80 concentration ([2]; used for second stimulation in the screen): 800 nM
2 | C[C@H](NC(=O)CNC(=O)c1cccc(Cl)c1)c1ccccc1 [7c, reference compound] |  |  |  | EC50 [1, 3]: 12.9 nM; Emax [1, 4]: 89.1 ± 4.38%
3 | O=C(O)C1CC=CCC1c1nnc(CSc2ccc(Cl)cc2)o1 (stereo not drawn) [AC004] |  |  |  | EC50 [2, 5]: 219 nM; Emax [2, 6]: 116%
4 | C=CCN(CC=C)C(=O)CN1C(=O)NC(C)(c2ccc3c(c2)OCO3)C1=O (stereo not drawn) [AC7] | 6.41 ± 0.12 | 390 | 112 ± 5 | 
5 | Cc1ccc(C2(C)NC(=O)N(Cc3cn4cc(Cl)ccc4n3)C2=O)cc1 (stereo not drawn) [AC10] |  |  |  | pEC50 ± S.E.M. [2, 9]: 5.55 ± 0.03; EC50 [2, 10]: 2830 nM; Emax ± S.E.M. [2, 11]: 89 ± 5%
6 | CC1(C2CC2)NC(=O)N(CC(=O)N2CCCSc3ccccc32)C1=O (stereo not drawn) [AC11] |  |  |  | pEC50 ± S.E.M. [2, 9]: 5.15 ± 0.12; EC50 [2, 10]: 7070 nM; Emax ± S.E.M. [2, 11]: 33 ± 3%
7 | CC(C)OCCCNC(=O)NC(C)c1ccc2c(c1)OCO2 (stereo not drawn) [AC12] |  |  |  | pEC50 ± S.E.M. [2, 9]: 5.43 ± 0.19; EC50 [2, 10]: 3740 nM; Emax ± S.E.M. [2, 11]: 116 ± 8%
8 | Cc1ccc(CNC(=O)NCC2CN(CC(C)C)CCO2)cc1 (stereo not drawn) [AC13] |  |  |  | pEC50 ± S.E.M. [2, 9]: 4.68 ± 0.13; EC50 [2, 10]: 20700 nM; Emax ± S.E.M. [2, 11]: 90 ± 5%
9 | O=C(NCCCc1nc2ccccc2[nH]1)NC1CCSc2ccc(F)cc21 (stereo not drawn) [AC14] | 6.11 ± 0.12 | 780 | 93 ± 3 | 
10 | CN(CC(=O)NC1CC1)C(=O)COc1ccc2oc3c(c2c1)CCCC3 [AC16] |  |  |  | pEC50 ± S.E.M. [2, 9]: 4.92 ± 0.12; EC50 [2, 10]: 11900 nM; Emax ± S.E.M. [2, 11]: 44 ± 4%
11 | O=C(NCCc1cc(Cl)c2c(c1)OCCO2)NCc1cccnc1-n1ccnc1 [AC37] |  |  |  | pEC50 ± S.E.M. [2, 9]: 5.55 ± 0.19; EC50 [2, 10]: 2800 nM; Emax ± S.E.M. [2, 11]: 105 ± 8%
12 | CC(C)OCCCNC(=O)NC(C)c1cccc(Cl)c1 (stereo not drawn) [AC76] | 6.03 ± 0.10 | 940 | 97 ± 4 | 
13 | CC(C)OCCCNC(=O)NC(C)c1ccccc1Cl (stereo not drawn) [AC77] | 6.22 ± 0.17 | 600 | 102 ± 4 | 
14 | CC(C)COCCCNC(=O)NC(C)c1ccc(Br)cc1 (stereo not drawn) [AC82] | 6.54 ± 0.08 | 290 | 102 ± 6 | 
15 | Cc1ccc(C(=O)CN2C(=O)NC(C)(c3ccc4c(c3)OCO4)C2=O)cc1 (stereo not drawn) [AC136] | 6.01 ± 0.03 | 990 | 67 ± 6 | 
16 | COc1ccc(OC)c(C(=O)CN2C(=O)NC(C)(c3ccc4c(c3)OCO4)C2=O)c1 (stereo not drawn) [AC137] | 6.27 ± 0.08 | 540 | 92 ± 3 | 
17 | COc1ccc(C(=O)CN2C(=O)NC(C)(c3ccc4c(c3)OCO4)C2=O)cc1OC (stereo not drawn) [AC138] | 6.10 ± 0.14 | 790 | 100 ± 5 | 
18 | Cc1ccc(C(C)NC(=O)NCC(=O)NCC2CC2)cc1F (stereo not drawn) [AC177] | 7.02 ± 0.11 | 90 | 103 ± 1 | pEC50 ± SEM ([1]; CHO-GPR139 cells): 7.65 ± 0.13; EC50 [1, 12]: 22 nM; Emax ± SEM [1, 4]: 79.10 ± 3.19
19 | CC(NC(=O)NCC(=O)NCC1CC1)c1ccc(F)cc1Cl (stereo not drawn) [AC178] | 6.55 ± 0.07 | 280 | 97 ± 5 | 

Row | SMILES | pEC50 ± S.E.M. ([2]; CHO-GPR139 cells) | EC50 [2, 7] [nM] | Emax ± S.E.M. [2, 8] [%] | other results
20 | CC1CC(C)CN(C(=O)CN2C(=O)NC(C)(c3cccc4ccccc34)C2=O)C1 (stereo not drawn) [AC186] | 6.39 ± 0.12 | 410 | 89 ± 5 | 
21 | CC1(c2cccc3ccccc23)NC(=O)N(CC(=O)N2CCCCCC2)C1=O (stereo not drawn) [AC187] | 6.13 ± 0.22 | 740 | 102 ± 5 | 
22 | CC1(c2ccc3c(c2)OCCO3)NC(=O)N(CC(=O)c2ccc[nH]2)C1=O (stereo not drawn) [AC191] | 6.46 ± 0.16 | 350 | 99 ± 2 | 
23 | CC1(c2ccc3c(c2)OCO3)NC(=O)N(CC(=O)N2CCCCC2)C1=O (stereo not drawn) [AC192] | 6.12 ± 0.13 | 750 | 95 ± 1 | 
24 | CC1(c2ccc3c(c2)OCCO3)NC(=O)N(CC(=O)c2c[nH]c3ccccc23)C1=O (stereo not drawn) [AC200] | 6.34 ± 0.11 | 460 | 111 ± 5 | 
25 | CC(=O)Oc1cccc2c1C(=O)c1c(OC(C)=O)cc(C(=O)O)cc1C2=O [AC201] |  |  |  | EC50 ([2]; calcium mobilization assay, GPR139, read-out: EC50): 1800 nM; EC50 [2, 5]: 1780 nM; Emax [2, 6]: 96%
26 | CC1(c2ccc3c(c2)OCO3)NC(=O)N(CC(=O)N2CCCc3ccccc32)C1=O (stereo not drawn) [AC202] | 6.47 ± 0.09 | 340 | 102 ± 2 | 
27 | CC1(c2ccc3c(c2)OCCO3)NC(=O)N(CC(=O)c2ccc3c(c2)OCO3)C1=O (stereo not drawn) [AC205] | 6.36 ± 0.14 | 440 | 100 ± 3 | 
28 | CC1(c2ccc3c(c2)OCCO3)NC(=O)N(CC(=O)N2CCc3ccccc3C2)C1=O (stereo not drawn) [AC209] | 6.54 ± 0.17 | 290 | 107 ± 3 | 
29 | CCc1cccc2c(C(=O)CN3C(=O)NC(C)(c4ccc5c(c4)OCCO5)C3=O)c[nH]c12 (stereo not drawn) [AC210] | 6.20 ± 0.24 | 630 | 115 ± 8 | 
30 | CC(C)(C)c1cc(NC(=O)Nc2ccc(-c3cn4c(n3)sc3cc(OCCN5CCOCC5)ccc34)cc2)no1 [AC220] |  | 490 |  | Emax [2, 8]: 103 ± 3%
31 | C=CCN(CC=C)C(=O)CN1C(=O)NC(C)(c2cccc3ccccc23)C1=O (stereo not drawn) [AC229] | 6.36 ± 0.16 | 430 | 95 ± 2 | 
32 | C=C(C)CN(CC)C(=O)CN1C(=O)NC(C)(c2cccc3ccccc23)C1=O (stereo not drawn) [AC230] | 6.31 ± 0.27 | 490 | 89 ± 1 | 
33 | CC1(c2cccc3ccccc23)NC(=O)N(CC(=O)c2cc3ccccc3o2)C1=O (stereo not drawn) [AC233] | 6.47 ± 0.19 | 340 | 80 ± 6 | 
34 | CC1(c2cccc3ccccc23)NC(=O)N(CC(=O)c2ccc3c(c2)OCO3)C1=O (stereo not drawn) [AC234] | 6.42 ± 0.07 | 380 | 99 ± 3 | 
35 | CC1(c2cccc3ccccc23)NC(=O)N(CC(=O)c2ccc(CCNS(C)(=O)=O)s2)C1=O (stereo not drawn) [AC241] | 6.38 ± 0.06 | 420 | 88 ± 3 | 
36 | CC1(c2cccc3ccccc23)NC(=O)N(CC(=O)NCCc2ccccc2)C1=O (stereo not drawn) [AC243] | 6.45 ± 0.11 | 350 | 86 ± 5 | 
37 | N[C@@H](Cc1c[nH]c2ccccc12)C(=O)O [L-tryptophan, reference compound] |  |  |  | EC50 [1, 12]: 770000 nM; EC50 [1, 3]: 759000 nM; Emax [1, 4]: 70.6 ± 8.59%
